Values quoted from earlier work, collected in US6759200B1, “Thymidine phosphorylase gene sequence variances having utility in determining the treatment of disease” (Nuvelo, Inc., priority 1998, dated 2004).
Counter-ions that a name gives are not always drawn. Like-named read-outs stand apart in the source and are kept apart here.

Columns and labels:
[1] = molecular target: T1, dihydropyrimidine dehydrogenase (DPD) (Homo sapiens, UniProt Q12882)
T1 construct: host or cells: human subjects in vivo (endogenous enzyme)
T1 sequence (Q12882 4-1025): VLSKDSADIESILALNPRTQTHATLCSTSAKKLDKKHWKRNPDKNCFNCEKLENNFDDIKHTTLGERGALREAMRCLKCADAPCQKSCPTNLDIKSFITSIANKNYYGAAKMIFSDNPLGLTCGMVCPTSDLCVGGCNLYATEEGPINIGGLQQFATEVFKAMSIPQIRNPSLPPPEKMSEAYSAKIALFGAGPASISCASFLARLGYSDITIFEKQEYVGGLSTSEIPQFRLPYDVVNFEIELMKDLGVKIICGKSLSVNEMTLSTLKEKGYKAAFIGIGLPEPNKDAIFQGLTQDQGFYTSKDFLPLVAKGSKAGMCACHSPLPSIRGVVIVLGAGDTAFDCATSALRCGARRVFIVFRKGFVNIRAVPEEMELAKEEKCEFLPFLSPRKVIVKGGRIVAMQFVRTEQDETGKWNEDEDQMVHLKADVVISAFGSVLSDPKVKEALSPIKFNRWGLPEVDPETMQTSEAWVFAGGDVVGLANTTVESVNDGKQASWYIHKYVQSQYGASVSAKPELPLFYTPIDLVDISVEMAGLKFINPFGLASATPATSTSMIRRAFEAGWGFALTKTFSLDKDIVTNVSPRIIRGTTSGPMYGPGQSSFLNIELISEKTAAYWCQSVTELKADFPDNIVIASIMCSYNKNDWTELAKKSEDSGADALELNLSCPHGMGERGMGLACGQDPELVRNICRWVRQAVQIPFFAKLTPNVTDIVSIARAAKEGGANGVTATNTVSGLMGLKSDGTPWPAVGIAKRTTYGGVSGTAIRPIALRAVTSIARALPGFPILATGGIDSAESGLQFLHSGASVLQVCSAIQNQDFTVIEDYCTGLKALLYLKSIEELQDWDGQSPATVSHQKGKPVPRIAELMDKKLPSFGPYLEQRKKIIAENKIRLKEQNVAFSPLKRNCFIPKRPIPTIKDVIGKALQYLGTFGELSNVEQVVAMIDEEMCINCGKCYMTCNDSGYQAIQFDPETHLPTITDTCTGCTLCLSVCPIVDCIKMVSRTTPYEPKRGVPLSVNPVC

[2] = test system: advanced colorectal cancer
[3] = up to; depending on the regimen
Alzheimer's disease = settings: PDR
nucleoside transport = nucleoside transport inhibitor paired with 5-FU and FA; Kohne et al. 1995
[4] = people genetically deficient in DPD, Diasio et al. 1988
[5] = Alzheimer's patients receiving Cognex

O=c1[nH]cc(F)c(=O)[nH]1 [5-FU, 5-fluorouracil]
dose of 5-FU transformed (catabolized) by DPD to the inactive dihydrofluorouracil form ([1]; in vivo): more than 80% | injected dose rapidly inactivated by DPD to therapeutically inactive catabolic products ([1]; injected dose): More than 85% | dose excreted unchanged in the urine (normal individuals): 10% | elimination half life (normal individuals): 0.167 to 0.25 h | dose excreted unchanged in the urine [4]: 90% | elimination half life [4]: 2.5 h | partial remissions ([2]; 5-FU alone, advanced colorectal cancers): 10-30% | patients with an objective response ([2]; advanced colorectal cancer): 20-40% | patients with a complete response (complete tumor disappearance) ([2]; advanced colorectal cancer, of the objective responders): 1-5% | patients suffering serious gastrointestinal or hematopoietic toxicity [3]: 20-30%

Nc1c2c(nc3ccccc13)CCCC2 [Cognex, tacrine hydrochloride]
patients showing no change or minimal worsening of their disease (Alzheimer's disease; Alzheimer's disease patients receiving Cognex): about 45% | patients minimally improved (Alzheimer's disease; [5]): About 58% | patients much improved (Alzheimer's disease; [5]): about 2%

O=c1ccn([C@@H]2O[C@H](COP(=O)(O)OP(=O)(O)OP(=O)(O)O)[C@@H](O)[C@H]2O)c(=O)[nH]1 [Uridine triphosphate]
release of thromboxane A2 (cultured glial cells): concentration-dependent increases

Nc1ccn([C@@H]2O[C@H](COP(=O)(O)OP(=O)(O)OP(=O)(O)O)[C@@H](O)[C@H]2O)c(=O)n1 [cytidine triphosphate]
release of thromboxane A2 (cultured glial cells): concentration-dependent increases

Cc1cn([C@H]2C[C@H](O)[C@@H](COP(=O)(O)OP(=O)(O)OP(=O)(O)O)O2)c(=O)[nH]c1=O [deoxythymidine triphosphate]
release of thromboxane A2 (cultured glial cells): concentration-dependent increases

OCCN(CCO)c1nc(N2CCCCC2)c2nc(N(CCO)CCO)nc(N3CCCCC3)c2n1 [dipyridamole]
outcome compared to 5-FU/FA alone (nucleoside transport): failed to show a difference in outcome

O=c1ccn([C@@H]2O[C@H](COP(=O)(O)OP(=O)(O)O)[C@@H](O)[C@H]2O)c(=O)[nH]1 [uridine diphosphate]
release of thromboxane A2 (cultured glial cells): concentration-dependent increases
